The nature of series [1]: Hypotensive effect in anesthetized normal rats, mean blood pressure. Further details: Decrease in blood pressure: unit not given here. The series is classed as in vivo, rat. Conditions: 100 μg/kg body weight into caudal artery, mean blood pressure before and after, n 3. The protocol: 2) The hypotensive effect of the test drugs was examined. After anesthetizing normal rats (male, body weight of about 300 g) with intraperitoneal administration of Nembutal, the dorsal region was fixed. Next, a cannula was inserted in the carotid artery and blood pressure was measured through a transducer (Nihon Kohden Corporation); simultaneous recording was made in combination with a polygraph (Nihon Kohden Corporation). After dissolving the test drugs in ethanol, and diluted (x200) with saline. Administration was given in the caudal artery in a dose of 100 μg/kg body weight. The mean blood pressure (MBP) was measured. The decrease in blood pressure was calculated from the measured values before and after administration. The n was 3 per group.

A further series addresses T1, PGT (Rattus norvegicus, UniProt Q00910).
T1 construct: endogenous in cells; host or cells: differentiated PC12 cells
The experiment in a line: Uptake of tritium-labelled PGE1 into differentiated PC12 cells through PGT. The class given is cell-based. Conditions: tritium-labelled PGE1 0.1 μM, mean ± SEM. The protocol: 1) Differentiated PC12 cells and tritium-labelled PGE1 (added concentration: 0.1 μM) were subjected to 10 mins of incubation at 37° C. Afterwards, the cells were washed with ice-cold phosphate buffered saline containing 5 g/l of bovine serum albumin and next washed with ice-cold phosphate buffered saline. Then, radioactivity was measured. The amount of PGE1 uptake into PC12 cells was calculated.
2) Bromcresol green (hereinafter noted as “BrCG”), which is a PGT inhibitor, was placed together in the culture medium at the addition of PGE1. Afterwards, treatment was conducted in the same manner as mentioned in 1).
3) The antisense oligonucleotide specific to PGT cDNA was designed as follows:
Moreover, said antisense was thioate modified. Using Lipofectin (Gibco), PC12 underwent transfection during 2 days prior to the addition of PGE1. Afterwards, treatment was conducted in the same manner as mentioned in 1).

Series [2] concerns differentiated PC12 cells. The experiment in a line: Suppression of apoptosis in differentiated PC12 cells after NGF withdrawal, Hoechst 33342 staining. The class given is cell-based, rat. Conditions: for Incidence of apoptosis (%): 24 hrs, NGF withdrawal, mean ± SEM. The protocol:
(§1) (1) After growing rat adrenal pheochromocytoma PC12 cells (obtained by: ATCC; importer: Dainippon Pharmaceutical) with RPMI1640 containing 10 ml/l heat-inactivated horse serum and 5 ml/l heat-inactivated fetal calf serum, culturing was performed with RPMI1640 containing mouse β NGF (100 ng/ml), N2 supplement, and TIP (5 μg/ml transferrin, 5 μg/ml insulin, and 10 ng/ml progesterone). Differentiation to neuron-like cells was performed.
(§2) (2) Differentiated PC12 cells were washed with Neurobasal culture medium. After replacing the culture medium with RPMI1640 not containing β NGF, N2 supplement, and TIP, mouse β NGF antibodies (final concentration: 50 ng/ml) were added. By culturing for 24 hrs, apoptosis was induced.
(3) A PGE1 ethanol solution was added (final concentration:
(§3) 0.01-1 μM) to fresh culture medium during medium replacement and culturing was performed for the same amount of time. As a negative control, a solvent (ethanol) alone was added in the same manner and culturing was performed for the same period of time. Apoptosis detection was performed by Hoechst 33342 staining (at 1 mM with a reaction in 2 minutes at room temperature) after fixation (room temperature for 30 mins) of cells with a 1% glutaraldehyde solution. Observation was made from 5 arbitrary visual fields using a fluorescence microscope. Total cell and apoptotic cells were counted, and incident of apoptosis was calculated.
(4) The values obtained were expressed as means±SEM. As for statistical analysis, a student's t-test (hereafter noted as a t-test) was used for two groups and Dunnet's test was used after one-way layout dimensional analysis (one-way ANOVA) for numerous groups; critical values for both were considered to be a significant difference below 5%.

The test system of series [3] is differentiated PC12 cells. The experiment in a line: Suppression of apoptosis in differentiated PC12 cells after NGF withdrawal, TUNEL staining. The class given is cell-based, rat. The following applies: for TUNEL-positive cells (%): NGF withdrawal. The protocol: as §1, §2, §3
As regards the apoptosis-suppressing activity of PGE1 in nerve neurons, the manners other than TUNEL staining for detection of apoptosis were in accordance with ones in Experiment 1. The results are indicated in Table2.

The structures appear in SMILES notation.

As to `CCCCC[C@H](O)/C=C/[C@H]1[C@H](O)CC(=O)[C@@H]1CCCCCCC(=O)O` [PGE1, prostaglandin E1], the “Decrease in blood pressure” value in series [1] is on record as −55. For the same compound, the “Amount of PGE1 uptake” value was determined as 73 ± 11 fmol/mg protein/10 mins at PGT (10 mins at 37° C., no BrCG (Table 3)) and 78 ± 11 fmol/mg protein/10 mins at PGT (no antisense (Table 4)). Further, the figures for the “Incidence of apoptosis (%)” value in series [2] (PGE1 0.01 μM), in series [2] (PGE1 0.1 μM) and in series [2] (PGE1 1 μM) were 21.3 ± 1.5%, 19.1 ± 8.1% and 17.1 ± 0.6%, respectively. In addition, the “Effect on cell apoptosis (in words)” value in series [2] (PGE1 1 μM) is “suppressed cell apoptosis”; in series [3] (PGE1 0.1 μM and 1 μM), “suppressed cell apoptosis”. The “TUNEL-positive cells (%)” value amounted to 13.80 ± 0.75% in series [3] (PGE1 0.1 μM) and 8.10 ± 1.57% in series [3] (PGE1 1 μM).

The record behind these values is US20020127228A1, “PGT and apoptosis” (WELFIDE CORPORATION, priority 1998, published 2002).
